Measurements: patent publication US3946000A, “7-[α-(2-Aminomethyl-1-cyclohexenyl)-acetamido]-3-heterocyclic thiomethyl-3-cephem-4-carboxylic acids” (Bristol-Myers Company, priority 1973, dated 1976)
≈ marks a conversion by molar mass, not a printed value. Where “and” joins values, the source holds several entries; their conditions need not be identical. Equal values may be shown once. Read-outs that look alike come from different tables or passages of the source. Values belong to the compound of their own block, whether it stands above or below them.

Tests used:
Mycobacterium 607 = assay: M.I.C. by Tube Dilution, Mycobacterium 607; format: cell-based; details: overnight at 37° C.
Pr. mirabilis A9900 = assay: M.I.C. by Tube Dilution, Pr. mirabilis A9900; format: cell-based; details: Proteus mirabilis, 10^-4 dilution, overnight at 37° C.
Pr. morganii A15153 = assay: M.I.C. by Tube Dilution, Pr. morganii A15153; format: cell-based; details: Morganella morganii, 10^-4 dilution, overnight at 37° C.
Sal. enteritidis A9531 = assay: M.I.C. by Tube Dilution, Sal. enteritidis A9531; format: cell-based; details: Salmonella enterica, 10^-4 dilution, overnight at 37° C.
D. pneumoniae A9585 = assay: M.I.C. by Tube Dilution, D. pneumoniae A9585; format: cell-based; details: Streptococcus pneumoniae, A9585, D. pneumoniae A9585 + 5% serum; 50% Nutrient Broth - 45% Antibiotic Assay Broth; overnight at 37° C.
E coli Juhl = assay: Minimum curative dose in infected mice, E coli Juhl; format: in vivo; details: Mus musculus, sc; subcutaneous, mice infected with lethal dose of E coli Juhl; read-out: CD50 (minimum curative dose for 50% of the mice)
E. coli NIHJ = assay: M.I.C. by Tube Dilution, E. coli NIHJ; format: cell-based; details: Escherichia coli, overnight at 37° C.
Ps. aeruginosa A9843 = assay: M.I.C. by Tube Dilution, Ps. aeruginosa A9843; format: cell-based; details: Pseudomonas aeruginosa, 10^-4 dilution, overnight at 37° C.
S. aureus Russel = assay: M.I.C. by Tube Dilution, S. aureus Russel; format: cell-based; details: Staphylococcus aureus, Nutrient Broth, overnight at 37° C.
S. aureus BX1633 A9606 = assay: M.I.C. by Tube Dilution, S. aureus BX1633 A9606; format: cell-based; details: Staphylococcus aureus, BX1633A9606, S. aureus BX1633 A9606; Nutrient Broth, overnight at 37° C.
E. coli Juhl A15119 = assay: M.I.C. by Tube Dilution, E. coli Juhl A15119; format: cell-based; details: Escherichia coli, JUHLA15119, 10^-4 dilution, overnight at 37° C.
[1] = Solubility in 0.1 M pH 7.0 phosphate buffer (bioassay and UV-assay); format: physicochemical; details: for solubility at 4 h: 0.1 m phosphate buffer, pH 7, aqueous buffer
Procedure: *Stirred at 25° C. for 4 hours in 0.1 M pH 7.0 phosphate
buffer--filtered through Milipore filter (0.45 μ)--assayed
spectroscopically against its own standard.
The test solution and the standard solution are prepared as described below.
About 10 mg. (1) of a sample is placed in a vial and mixed with 1 ml. of 0.1 M phosphate buffer (pH 7.0). The vial is stoppered, sealed with a metal cap, placed on a rotary shaker and agitated at 160 rpm for 4 hr. at 25° C. The solution is filtered through a Millipore filter (HAWP 01300, mean pore size 0.45 μm). The filtrate is diluted to use for bioassay and UV assay as follows:
About 2 mg. of the same sample is weighed precisely and dissolved in 4 ml. of 1% K2 CO3 solution^(3) (usually within one minute). The solution is diluted exactly to 50 ml. in a flask with 0.1 M pH 7.0 phosphate buffer and used for the preparation of the standard solutions for bioassay and UV-assay as follows:
(1) A 20 mg. or more sample is used when the sample is expected to be more soluble.
(2) 0.1 M pH 7.0 phosphate buffer is used as a diluent in the present test and also as a reference solution in UV-assay.
(3) It was previously confirmed that almost the same result is obtained when the sample is solubilized in DMSO (dimethylsulfoxide) and then diluted similarily with the buffer.
(4) Volume of the solution is measured precisely with an appropriate pipette or flask.
BA: Bioassay, UV: UV-assay Results given for the same compound on different lines were obtained using samples from different lots.

K. pneumoniae A15130 = assay: M.I.C. by Tube Dilution, K. pneumoniae A15130; format: cell-based; details: Klebsiella pneumoniae, 10^-4 dilution, overnight at 37° C.
S. aureus Smith A9537 = assay: M.I.C. by Tube Dilution, S. aureus Smith A9537; format: cell-based; details: Staphylococcus aureus, 10^-4 dilution, overnight at 37° C.
S. aureus BX-1633 = assay: Minimum curative dose in infected mice, S. aureus BX-1633; format: in vivo; details: Staphylococcus aureus, BX1633, sc; subcutaneous, mice infected with lethal dose of S. aureus BX-1633; read-out: CD50 (minimum curative dose for 50% of the mice)
K. pneumoniae A9977 = assay: M.I.C. by Tube Dilution, K. pneumoniae A9977; format: cell-based; details: Klebsiella pneumoniae, 10^-4 dilution, overnight at 37° C.
Str. pyogenes A9604 = assay: M.I.C. by Tube Dilution, Str. pyogenes A9604; format: cell-based; details: Streptococcus pyogenes; Str. pyogenes A9604 + 5% serum; 50% Nutrient Broth - 45% Antibiotic Assay Broth; overnight at 37° C.
E. coli ATCC 8739 = assay: M.I.C. by Tube Dilution, E. coli ATCC 8739; format: cell-based; details: Escherichia coli, ATCC8739, overnight at 37° C.
Ser. marcescens A20019 = assay: M.I.C. by Tube Dilution, Ser. marcescens A20019; format: cell-based; details: Serratia marcescens, 10^-4 dilution, overnight at 37° C.
[2] = 0.1 M phosphate buffer (pH 7.0), 4 hr. at 25° C., UV-assay, read-out: Solubility, UV (UV-assay)
[3] = 0.1 M phosphate buffer (pH 7.0), 4 hr. at 25° C., bioassay, read-out: Solubility, BA (bioassay)
[4] = stirred at 25° C. for 4 hours in 0.1 M pH 7.0 phosphate buffer, assayed spectroscopically against its own standard, read-out: Solubility

solubility at 4 h [1, 2]: 900 µg/mL (≈ 1.83 mM) | solubility at 4 h [1, 3]: 1200 µg/mL (≈ 2.44 mM) | solubility at 4 h [1, 4]: 900 µg/mL (≈ 1.83 mM)
Structure (SMILES): Cc1nnc(SCC2=C(C(=O)O)N3C(=O)C(NC(=O)Cc4ccccc4CN)C3SC2)s1 (stereo not shown) [MR-S96, reference compound]

solubility at 4 h [1, 2]: 4600 µg/mL (≈ 9.28 mM) | solubility at 4 h [1, 3]: 4300 µg/mL (≈ 8.68 mM) | solubility at 4 h [1, 4]: 4300 to 4600 µg/mL (≈ 8.68 to 9.28 mM)
Structure (SMILES): Cc1nnc(SCC2=C(C(=O)O)N3C(=O)C(NC(=O)CC4=C(CN)CCCC4)[C@H]3SC2)s1 (stereo partly drawn) [Example 4, 7-[α-(2-aminomethyl-1-cyclohexenyl)acetamido]-3-(5-methyl-1,3,4-thiadiazol-2-ylthiomethyl)-3-cephem-4-carboxylic acid]

solubility at 4 h [1, 2]: 8100 µg/mL (≈ 15.2 mM) | solubility at 4 h [1, 3]: 8000 µg/mL (≈ 15 mM) | solubility at 4 h [1, 4]: 8000 µg/mL (≈ 15 mM)
Structure (SMILES): NCC1=C(CC(=O)NC2C(=O)N3C(C(=O)O)=C(CSc4ccc5nnc(O)n5n4)CSC23)CCCC1 (stereo not drawn) [Example 5, 7-[α-(2-Aminomethyl-1-cyclohexenyl)acetamido]-3-(3-hydroxypyridazino-[3,2-c]-3-triazol-6-ylthiomethyl)-3-cephem-4-carboxylic acid]

More lines, now with the values behind:

Structure (SMILES): Cn1nnnc1SCC1=C(C(=O)O)N2C(=O)C(NC(=O)CC3=C(CN)CCCC3)[C@H]2SC1 (stereo partly shown) [Example 3, 7-[(2-aminomethyl-1-cyclohexen-1-yl)acetamido]-3-(1-methyltetrazol-5-ylthiomethyl)-3-cephem-4-carboxylic acid]
MIC (Mycobacterium 607): > 100 µg/mL | MIC (Pr. mirabilis A9900): 100 µg/mL (≈ 0.209 mM) | MIC (Pr. morganii A15153): > 100 µg/mL | MIC (Sal. enteritidis A9531): 1.6 to 3.1 µg/mL (≈ 0.00334 to 0.00646 mM) | MIC (D. pneumoniae A9585): 0.04 to 0.08 µg/mL | ED50 (E coli Juhl): 5.4 mg/kg | MIC (E. coli NIHJ): 1.6 to 3.1 µg/mL (≈ 0.00334 to 0.00646 mM) | MIC (Ps. aeruginosa A9843): > 100 µg/mL | MIC (S. aureus Russel): 0.4 to 0.8 µg/mL (≈ 0.000834 to 0.00167 mM) | MIC (S. aureus BX1633 A9606): 1.6 µg/mL (≈ 0.00334 mM) | MIC (E. coli Juhl A15119): 3.1 to 6.3 µg/mL (≈ 0.00646 to 0.0131 mM) | Solubility, UV (UV-assay) ([1]; 0.1 M phosphate buffer (pH 7.0), 4 hr. at 25° C., UV-assay, listed as BB-S336, 240 min): 26000 µg/mL (≈ 54.2 mM) | Solubility, BA (bioassay) ([1]; 0.1 M phosphate buffer (pH 7.0), 4 hr. at 25° C., bioassay, listed as BB-S336, 240 min): 23000 µg/mL (≈ 48 mM) | solubility at 4 h [1, 2]: 24600 µg/mL (≈ 51.3 mM) | solubility at 4 h [1, 3]: 25600 µg/mL (≈ 53.4 mM) | solubility at 4 h [1, 4]: 23000 to 26000 µg/mL (≈ 48 to 54.2 mM) | MIC (K. pneumoniae A15130): 3.1 to 6.3 µg/mL (≈ 0.00646 to 0.0131 mM) | MIC (S. aureus Smith A9537; SMITHA9537, S. aureus Smith A9537 + 50% serum): 0.8 to 1.6 µg/mL | MIC (S. aureus Smith A9537; SMITHA9537, S. aureus Smith A9537, Nutrient Broth): 0.2 to 0.4 µg/mL (≈ 0.000417 to 0.000834 mM) | ED50 (S. aureus BX-1633): 2.4 mg/kg | MIC (K. pneumoniae A9977): 0.8 to 3.1 µg/mL (≈ 0.00167 to 0.00646 mM) | MIC (Str. pyogenes A9604): 0.04 to 0.08 µg/mL | MIC (E. coli ATCC 8739): 3.1 to 6.3 µg/mL (≈ 0.00646 to 0.0131 mM) | MIC (Ser. marcescens A20019): > 100 µg/mL

Structure (SMILES): NCc1ccccc1CC(=O)NC1C(=O)N2C(C(=O)O)=C(CSc3ccc(O)nn3)CSC12 (stereo not shown) [BB-S150, reference compound]
solubility at 4 h [1, 2]: 4400 µg/mL (≈ 9.02 mM) | solubility at 4 h [1, 3]: 4400 µg/mL (≈ 9.02 mM) | solubility at 4 h [1, 4]: 4400 µg/mL (≈ 9.02 mM)

Structure (SMILES): NCc1ccccc1CC(=O)NC1C(=O)N2C(C(=O)O)=C(CSc3ccc4nnnn4n3)CSC12 (stereo not shown) [BB-S226, reference compound]
Solubility, UV (UV-assay) ([1]; 0.1 M phosphate buffer (pH 7.0), 4 hr. at 25° C., UV-assay, 240 min): 2100 µg/mL and 3500 µg/mL and 2200 µg/mL | solubility at 4 h [1, 2]: 2500 µg/mL (≈ 4.88 mM) | solubility at 4 h [1, 3]: 3800 µg/mL (≈ 7.41 mM) | solubility at 4 h [1, 4]: 3500 µg/mL (≈ 6.83 mM)
